Test [1] concerns TTX-sensitive Nav channels in mouse DRG neuron. In kind it is cell-based. Conditions: for potency relative to JzTx-V (more potent): TTX-sensitive current.
Test [2] addresses T1, hNav1.7 (Homo sapiens, UniProt Q15858). The test is described as follows: cell-based. In kind it is cell-based. Conditions: for block of hNav1.7 current: 100 pM peptide.
Test [3] concerns the target T1, hNav1.7. Kind of test: cell-based. The conditions noted are these: IonWorks Quattro; read-out: IC50 Nav1.7.
Test [4] deals with T2, hNav1.5 (Homo sapiens, UniProt Q14524). The test is described as follows: cell-based. Conditions: IonWorks Quattro; read-out: IC50 Nav1.5. On the technique in general: In patch-clamp work, channel activity is measured electrically.
T2 sequence (Q14524 whole entry): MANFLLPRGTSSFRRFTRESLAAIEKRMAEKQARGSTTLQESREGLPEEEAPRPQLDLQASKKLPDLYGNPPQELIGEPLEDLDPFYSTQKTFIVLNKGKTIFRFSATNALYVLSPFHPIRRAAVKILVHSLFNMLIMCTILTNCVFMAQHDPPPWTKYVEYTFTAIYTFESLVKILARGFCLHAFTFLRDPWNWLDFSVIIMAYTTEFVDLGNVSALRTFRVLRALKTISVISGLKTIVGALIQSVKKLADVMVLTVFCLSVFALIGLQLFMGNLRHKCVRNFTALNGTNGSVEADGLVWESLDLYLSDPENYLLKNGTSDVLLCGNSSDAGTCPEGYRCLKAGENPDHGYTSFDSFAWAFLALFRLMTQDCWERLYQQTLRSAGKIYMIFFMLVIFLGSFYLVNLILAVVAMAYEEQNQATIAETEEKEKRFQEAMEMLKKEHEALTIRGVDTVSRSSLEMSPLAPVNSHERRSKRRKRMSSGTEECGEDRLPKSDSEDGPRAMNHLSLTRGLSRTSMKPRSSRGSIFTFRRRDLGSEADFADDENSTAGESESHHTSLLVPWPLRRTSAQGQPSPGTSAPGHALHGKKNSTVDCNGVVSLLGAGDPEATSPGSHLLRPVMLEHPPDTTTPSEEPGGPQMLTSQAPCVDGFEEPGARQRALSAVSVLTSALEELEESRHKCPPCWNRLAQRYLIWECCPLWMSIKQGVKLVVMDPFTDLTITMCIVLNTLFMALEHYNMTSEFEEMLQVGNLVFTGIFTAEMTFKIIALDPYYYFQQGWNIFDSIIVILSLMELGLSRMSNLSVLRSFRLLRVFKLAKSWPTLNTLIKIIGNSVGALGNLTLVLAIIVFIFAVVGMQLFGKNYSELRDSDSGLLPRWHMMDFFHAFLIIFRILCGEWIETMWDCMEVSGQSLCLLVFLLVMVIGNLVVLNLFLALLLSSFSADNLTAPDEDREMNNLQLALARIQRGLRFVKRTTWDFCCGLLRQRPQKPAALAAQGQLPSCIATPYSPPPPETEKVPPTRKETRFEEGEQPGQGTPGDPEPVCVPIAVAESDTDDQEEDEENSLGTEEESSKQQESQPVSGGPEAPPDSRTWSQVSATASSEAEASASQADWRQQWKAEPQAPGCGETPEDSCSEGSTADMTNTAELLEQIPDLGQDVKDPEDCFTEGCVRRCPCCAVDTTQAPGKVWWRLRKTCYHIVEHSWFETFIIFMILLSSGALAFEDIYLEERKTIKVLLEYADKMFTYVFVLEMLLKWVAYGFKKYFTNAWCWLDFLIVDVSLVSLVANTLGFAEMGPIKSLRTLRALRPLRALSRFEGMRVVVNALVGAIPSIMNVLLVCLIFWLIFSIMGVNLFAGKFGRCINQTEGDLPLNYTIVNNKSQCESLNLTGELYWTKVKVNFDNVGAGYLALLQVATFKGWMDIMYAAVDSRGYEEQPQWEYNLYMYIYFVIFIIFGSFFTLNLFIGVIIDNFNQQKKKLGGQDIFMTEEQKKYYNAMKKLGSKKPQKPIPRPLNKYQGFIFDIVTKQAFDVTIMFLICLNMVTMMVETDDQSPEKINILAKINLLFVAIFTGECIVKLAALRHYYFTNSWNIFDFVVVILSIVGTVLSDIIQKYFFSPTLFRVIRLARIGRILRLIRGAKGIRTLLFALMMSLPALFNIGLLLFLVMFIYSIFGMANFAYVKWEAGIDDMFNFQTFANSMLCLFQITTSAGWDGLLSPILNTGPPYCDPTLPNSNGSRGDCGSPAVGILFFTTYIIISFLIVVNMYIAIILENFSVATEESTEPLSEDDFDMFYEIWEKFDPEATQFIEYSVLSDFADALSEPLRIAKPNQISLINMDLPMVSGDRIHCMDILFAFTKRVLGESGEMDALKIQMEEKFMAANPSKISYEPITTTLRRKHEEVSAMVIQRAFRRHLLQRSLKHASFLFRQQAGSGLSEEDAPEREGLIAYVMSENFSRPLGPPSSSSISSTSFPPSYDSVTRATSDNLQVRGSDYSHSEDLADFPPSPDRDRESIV
Test [5] deals with T3, hNav1.4 (Homo sapiens, UniProt P35499). Kind of test: cell-based. Conditions: for IC50: IonWorks Quattro, read-out: IC50 Nav1.4.
The next test addresses hNav1.3 (Homo sapiens, UniProt Q9NY46). Kind of test: cell-based. The conditions noted are these: IonWorks Quattro; read-out: IC50 Nav1.3.
Test [6] has as its target T1, hNav1.7. The test is described as follows: cell-based. In kind it is cell-based. The conditions noted are these: PatchXpress, read-out: PX hNav1.7 Tonic IC50.
In test [7] the target is T3, hNav1.4. The test is described as follows: cell-based. The conditions noted are these: for IC50: PatchXpress, read-out: PX hNav1.4 Tonic IC50.
Test [8] deals with T2, hNav1.5. The test is described as follows: cell-based. Conditions: PatchXpress, read-out: PX hNav1.5 Tonic IC50.
For test [9], the system named is male CD-1 mice. The conditions noted are these: mouse, in vivo.
Test [10] relates to male CD-1 mice. The conditions noted are these: mouse, in vivo. This is another data set of the same source.
A further test has as its system male Sprague-Dawley rats. In kind it is in vivo, rat. Conditions: rat, in vivo.
Where [11] appears, read: * = at high concentrations compound would wash off slowly or not at all.

The IC50 is the concentration that inhibits the measured activity by half.

Where “and” joins values, the source holds several entries; their conditions need not be identical. Equal values may be shown once. Entries after “also recorded” stand apart in the source; their conditions may differ. Read-outs that look alike come from different tables or passages of the source.

T1 sequence (Q15858 whole entry): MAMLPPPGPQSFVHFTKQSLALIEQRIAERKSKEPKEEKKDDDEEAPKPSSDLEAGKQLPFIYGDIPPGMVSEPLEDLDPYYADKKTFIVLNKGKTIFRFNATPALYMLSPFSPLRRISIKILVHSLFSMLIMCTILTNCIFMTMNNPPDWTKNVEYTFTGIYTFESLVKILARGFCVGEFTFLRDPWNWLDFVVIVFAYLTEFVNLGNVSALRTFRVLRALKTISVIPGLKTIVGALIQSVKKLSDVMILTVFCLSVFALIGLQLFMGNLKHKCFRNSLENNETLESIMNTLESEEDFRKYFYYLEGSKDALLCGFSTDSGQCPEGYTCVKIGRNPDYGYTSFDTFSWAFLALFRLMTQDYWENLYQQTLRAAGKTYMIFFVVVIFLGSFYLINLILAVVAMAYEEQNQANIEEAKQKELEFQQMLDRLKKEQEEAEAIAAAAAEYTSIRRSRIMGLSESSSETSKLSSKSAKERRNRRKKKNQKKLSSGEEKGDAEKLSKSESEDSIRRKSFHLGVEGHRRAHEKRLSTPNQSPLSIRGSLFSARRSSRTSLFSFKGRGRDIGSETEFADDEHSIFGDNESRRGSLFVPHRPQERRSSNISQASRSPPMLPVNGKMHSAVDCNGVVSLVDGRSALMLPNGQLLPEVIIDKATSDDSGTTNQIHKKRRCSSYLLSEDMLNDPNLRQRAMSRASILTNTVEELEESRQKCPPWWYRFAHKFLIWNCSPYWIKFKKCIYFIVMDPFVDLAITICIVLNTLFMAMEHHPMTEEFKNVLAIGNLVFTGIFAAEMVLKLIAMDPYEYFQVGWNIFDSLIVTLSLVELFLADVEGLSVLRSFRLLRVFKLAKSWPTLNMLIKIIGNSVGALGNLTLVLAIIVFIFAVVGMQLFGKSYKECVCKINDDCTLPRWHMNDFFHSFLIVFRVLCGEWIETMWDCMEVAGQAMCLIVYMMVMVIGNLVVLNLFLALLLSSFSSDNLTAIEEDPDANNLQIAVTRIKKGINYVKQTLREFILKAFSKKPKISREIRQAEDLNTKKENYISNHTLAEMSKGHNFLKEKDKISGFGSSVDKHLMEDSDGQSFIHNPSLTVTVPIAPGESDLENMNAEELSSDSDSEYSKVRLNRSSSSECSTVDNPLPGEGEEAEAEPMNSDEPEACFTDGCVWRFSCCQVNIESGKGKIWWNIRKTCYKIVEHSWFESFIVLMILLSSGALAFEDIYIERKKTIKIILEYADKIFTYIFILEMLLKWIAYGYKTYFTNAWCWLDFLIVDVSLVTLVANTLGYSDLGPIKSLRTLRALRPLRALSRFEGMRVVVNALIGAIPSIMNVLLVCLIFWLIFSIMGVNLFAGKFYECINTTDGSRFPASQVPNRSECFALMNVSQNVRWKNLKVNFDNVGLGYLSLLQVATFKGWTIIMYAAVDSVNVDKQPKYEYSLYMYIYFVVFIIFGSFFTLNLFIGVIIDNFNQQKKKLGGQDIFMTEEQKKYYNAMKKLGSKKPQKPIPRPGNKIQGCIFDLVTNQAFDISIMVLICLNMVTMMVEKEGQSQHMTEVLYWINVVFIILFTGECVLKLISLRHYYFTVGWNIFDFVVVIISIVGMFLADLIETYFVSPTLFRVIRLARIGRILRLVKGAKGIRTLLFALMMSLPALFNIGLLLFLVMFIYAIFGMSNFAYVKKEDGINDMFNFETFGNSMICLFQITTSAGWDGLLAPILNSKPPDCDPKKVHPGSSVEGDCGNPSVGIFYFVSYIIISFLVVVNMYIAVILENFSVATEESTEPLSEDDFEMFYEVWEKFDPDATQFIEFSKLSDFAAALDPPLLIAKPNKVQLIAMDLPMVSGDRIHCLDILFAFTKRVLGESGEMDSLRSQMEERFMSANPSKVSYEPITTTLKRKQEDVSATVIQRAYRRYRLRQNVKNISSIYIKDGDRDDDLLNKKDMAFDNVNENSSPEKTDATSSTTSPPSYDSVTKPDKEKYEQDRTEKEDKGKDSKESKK

Turning to `C#CC[C@H](N)C(=O)NCCCC[C@@H]1NC(=O)[C@H](CCCNC(=N)N)NC(=O)[C@H](CCCCN)NC(=O)[C@H](CO)NC(=O)[C@H](CC(=O)O)NC(=O)[C@@H]2CSSC[C@@H]3NC(=O)[C@H](CCCNC(=N)N)NC(=O)[C@H](CC(C)C)NC(=O)CNC(=O)[C@H](CCC(=O)O)NC(=O)[C@H](CSSC[C@H](NC(=O)[C@H](Cc4ccc(O)cc4)NC(=O)[C@@H](N)CC#N)C(=O)N[C@@H](CCC(N)=O)C(=O)N[C@@H](CCCCN)C(=O)N[C@@H](Cc4c[nH]c5ccccc45)C(=O)N[C@@H](CCCC)C(=O)N[C@@H](Cc4c[nH]c5ccccc45)C(=O)N[C@@H]([C@@H](C)O)C(=O)N2)NC(=O)[C@H](CSSC[C@@H](C(=O)N[C@@H](CCCNC(=N)N)C(=O)N[C@@H](CCCCN)C(=O)N[C@@H](CCC(=O)O)C(=O)N[C@H](C(N)=O)[C@@H](C)CC)NC(=O)[C@H](Cc2c[nH]c4ccccc24)NC(=O)[C@H](CC(C)C)NC(=O)[C@H](CCCCN)NC3=O)NC1=O` [SEQ ID NO: 392, CyA-[Nle6,Lys(Pra)14,Glu28]JzTx-V(1-29)], the “potency relative to JzTx-V (less potent)” value in test [1] is “about 3 fold”. In addition, the “block of TTX-sensitive Nav current” value in [1] (300 nM SEQ ID NO:392, held at −88 mV) was “blocked most TTX-sensitive Nav current; also recorded: almost complete inhibition”.
Turning to `C#CC[C@@H]1NC(=O)[C@@H]2CSSC[C@H](NC(=O)[C@H](Cc3ccc(O)cc3)NC(=O)[C@@H](N)CC#N)C(=O)N[C@@H](CCC(N)=O)C(=O)N[C@@H](CCCCN)C(=O)N[C@@H](Cc3c[nH]c4ccccc34)C(=O)N[C@@H](CCCC)C(=O)N[C@@H](Cc3c[nH]c4ccccc34)C(=O)N[C@@H]([C@@H](C)O)C(=O)N[C@H]3CSSC[C@H](NC(=O)[C@H](CCCNC(=N)N)NC(=O)[C@H](CC(C)C)NC(=O)CNC1=O)C(=O)N[C@@H](CCCCN)C(=O)N[C@@H](CC(C)C)C(=O)N[C@@H](Cc1c[nH]c4ccccc14)C(=O)N[C@H](C(=O)N[C@@H](CCCNC(=N)N)C(=O)N[C@@H](CCCCN)C(=O)N[C@@H](CCC(=O)O)C(=O)N[C@H](C(N)=O)[C@@H](C)CC)CSSC[C@H](NC(=O)[C@H](C)NC(=O)[C@H](CCCNC(=N)N)NC(=O)[C@H](CCCCN)NC(=O)[C@H](CO)NC(=O)[C@H](CC(=O)O)NC3=O)C(=O)N2` [SEQ ID NO: 395, CyA-[Nle6,Pra17,Glu28]JzTx-V(1-29)], the “block of TTX-sensitive Nav current” value in test [1] (300 nM SEQ ID NO:395, held at −77 mV) is given as “fully blocked TTX-sensitive Nav current; also recorded: complete inhibition”. In test [1] (mouse DRG neurons), the “potency relative to JzTx-V (more potent)” value was “equipotent”.
For the compound `C#CC[C@H](N)C(=O)N[C@@H](Cc1ccc(O)cc1)C(=O)N[C@H]1CSSC[C@@H]2NC(=O)[C@@H]3CSSC[C@@H](C(=O)N[C@@H](CCCNC(=N)N)C(=O)N[C@@H](CCCCN)C(=O)N[C@H](C(=O)N[C@H](C(N)=O)[C@@H](C)CC)[C@@H](C)CC)NC(=O)[C@H](Cc4c[nH]c5ccccc45)NC(=O)[C@H](CC(C)C)NC(=O)[C@H](CCCCN)NC(=O)[C@H](CSSC[C@H](NC(=O)[C@H]([C@@H](C)O)NC(=O)[C@H](Cc4c[nH]c5ccccc45)NC(=O)[C@H](CCCC)NC(=O)[C@H](Cc4c[nH]c5ccccc45)NC(=O)[C@H](CCCCN)NC(=O)[C@H](CCC(N)=O)NC1=O)C(=O)N[C@@H](CC(=O)O)C(=O)N[C@@H](CO)C(=O)N[C@@H](CCCCN)C(=O)N[C@@H](CCCNC(=N)N)C(=O)N[C@@H](C)C(=O)N3)NC(=O)[C@H](CCCNC(=N)N)NC(=O)[C@H](CC(C)C)NC(=O)CNC(=O)[C@H](CCC(=O)O)NC2=O` [SEQ ID NO: 425, Pra-[Nle6]JzTx-V], the “block of hNav1.7 current” value on hNav1.7 [2] (held at −77 mV (partially inactivated state)) and at hNav1.7 [2] (held at −140 mV (fully non-inactivated state)) was “fully blocked Nav1.7 current; also recorded: complete inhibition” throughout. Besides, the “block of TTX-sensitive Nav current” value in test [1] is on record as “blocked most TTX-sensitive Nav current”. Further, the “inhibition of TTX-sensitive sodium current” value in test [1] (1 nM peptide (as printed in text), mouse DRG neurons) was “almost complete inhibition”. In test [1] (mouse DRG neurons), the “potency relative to JzTx-V (more potent)” value is “about 3 fold”.
Regarding `NC1=N[C@H](O)[C@H]2[C@H]3O[C@]4(O)O[C@@H]([C@@H](O)[C@@]2(N1)[C@@H]4O)[C@]3(O)CO` [TTX, tetrodotoxin, reference compound], in [1], the “block of TTX-sensitive Nav current” value is recorded as “completely blocked TTX-sensitive Nav current”.
On to `CC[C@H](C)[C@H](NC(=O)[C@H](Cc1ccc(O)cc1)NC(=O)[C@H](CCCCN)NC(=O)[C@H](CCCNC(=N)N)NC(=O)[C@@H]1CSSC[C@@H]2NC(=O)[C@H](C)NC(=O)[C@H](CCCNC(=N)N)NC(=O)[C@H](CCCCN)NC(=O)[C@H](CO)NC(=O)[C@H](CC(=O)O)NC(=O)[C@@H]3CSSC[C@H](NC(=O)[C@H](CCC(=O)O)NC(=O)[C@H](CC(C)C)NC(=O)CNC(=O)[C@H](CCC(=O)O)NC(=O)[C@H](CSSC[C@H](NC(=O)[C@@H](N)CCC(=O)O)C(=O)N[C@@H](CCC(N)=O)C(=O)N[C@@H](CCCCN)C(=O)N[C@@H](Cc4c[nH]c5ccccc45)C(=O)N[C@@H](CCSC)C(=O)N[C@@H](Cc4c[nH]c5ccccc45)C(=O)N[C@@H]([C@@H](C)O)C(=O)N3)NC2=O)C(=O)N[C@@H](CCCCN)C(=O)N[C@@H](CC(C)C)C(=O)N[C@@H](Cc2c[nH]c3ccccc23)C(=O)N1)C(N)=O` [compound 277], for which the half-maximal inhibitory concentration (IC50) was 210 nM at hNav1.7 [3]; 2000 nM on hNav1.5 [4]; over 5000 nM on hNav1.4 [5]; over 5000 nM at hNav1.3; 5.5 nM at hNav1.7 [6] (setting [11]); 939 nM on hNav1.4 [7] (setting [11]). Further, at hNav1.5 [8] (setting [11]), the IC50 was over 10000 nM.
Consider `C#CC[C@@H]1NC(=O)[C@H](CCCNC(=N)N)NC(=O)[C@H](CCCCN)NC(=O)[C@H](CO)NC(=O)[C@H](CC(=O)O)NC(=O)[C@@H]2CSSC[C@@H]3NC(=O)[C@H](CCCNC(=N)N)NC(=O)[C@H](CC(C)C)NC(=O)CNC(=O)[C@H](CCC(=O)O)NC(=O)[C@H](CSSC[C@H](NC(=O)[C@@H](N)Cc4ccc(O)cc4)C(=O)N[C@@H](CCC(N)=O)C(=O)N[C@@H](CCCCN)C(=O)N[C@@H](Cc4c[nH]c5ccccc45)C(=O)N[C@@H](CCCC)C(=O)N[C@@H](Cc4c[nH]c5ccccc45)C(=O)N[C@@H]([C@@H](C)O)C(=O)N2)NC(=O)[C@H](CSSC[C@@H](C(=O)N[C@@H](CCCNC(=N)N)C(=O)N[C@@H](CCCCN)C(=O)N[C@H](C(=O)N[C@H](C(N)=O)[C@@H](C)CC)[C@@H](C)CC)NC(=O)[C@H](Cc2c[nH]c4ccccc24)NC(=O)[C@H](CC(C)C)NC(=O)[C@H](CCCCN)NC3=O)NC1=O` [compound 283], for which the IC50 at hNav1.7 [3] was 70 nM; on hNav1.5 [4], over 7000 nM; on hNav1.4 [5], 90 nM; on hNav1.3, 60 nM; on hNav1.7 [6] (tonic block), 0.3 nM; on hNav1.4 [7] (tonic block), 5 nM. For the same compound, the concentration for half-maximal inhibition (IC50) on hNav1.5 [8] (tonic block) was 630 nM. The Nav1.4/Nav1.7 was determined as 1 on hNav1.4 [5] (ratio of IonWorks Quattro IC50 values) and 17 at hNav1.4 [7] (ratio of PX tonic IC50 values).
In the case of `C#CC[C@H](N)C(=O)N[C@@H](Cc1ccc(O)cc1)C(=O)N[C@H]1CSSC[C@@H]2NC(=O)[C@@H]3CSSC[C@@H](C(=O)N[C@@H](CCCNC(=N)N)C(=O)N[C@@H](CCCCN)C(=O)N[C@H](C(=O)N[C@H](C(N)=O)[C@@H](C)CC)[C@@H](C)CC)NC(=O)[C@H](Cc4c[nH]c5ccccc45)NC(=O)[C@H](CC(C)C)NC(=O)[C@H](CCCCN)NC(=O)[C@H](CSSC[C@H](NC(=O)[C@H]([C@@H](C)O)NC(=O)[C@H](Cc4c[nH]c5ccccc45)NC(=O)[C@H](CCCC)NC(=O)[C@H](Cc4c[nH]c5ccccc45)NC(=O)[C@H](CCCCN)NC(=O)[C@H](CCC(N)=O)NC1=O)C(=O)N[C@@H](CC(=O)O)C(=O)N[C@@H](CO)C(=O)N[C@@H](CCCCN)C(=O)N[C@@H](CCCNC(=N)N)C(=O)N[C@@H](C)C(=O)N3)NC(=O)[C@H](CCCNC(=N)N)NC(=O)[C@H](CC(C)C)NC(=O)CNC(=O)[C@H](CCC(=O)O)NC2=O` [compound 425], the IC50 at hNav1.7 [3] was 8 nM and 13 nM; at hNav1.4 [7] (setting [11]), 4 nM and 2.5 nM; at hNav1.5 [8] (setting [11]) it was 970 nM and 700 nM. For the same compound, the “1.x/1.7, fully non-inactivated” value at hNav1.7 [2] (hNav1.7 vs hNav1.7, fully non-inactivated) is given as 1. Further, the “1.x/1.7, partially inactivated” value at hNav1.7 [2] (hNav1.7 vs hNav1.7, partially inactivated) was 1; in test [1] (mTTX-S vs hNav1.7, partially inactivated) it was 6335.
As to `Cc1cccc(C)c1OCC(C)N` (centres unmarked) [mexilitine, reference compound], in the test on male CD-1 mice [9], the “thermal latency / thermal hyperalgesia” value is reported as “significantly reverse thermal hyperalgesia”.
For `CN1CC[C@]23c4c5ccc(O)c4O[C@H]2[C@@H](O)C=C[C@H]3[C@H]1C5` [morphine], in the test with male CD-1 mice [10], the “time spent lifting and/or licking the affected paw, second phase (5-40 min)” value was “significantly reduce pain response; also recorded: significantly reduced the pain response; also recorded: did significantly reduce”. Further, in the test with male Sprague-Dawley rats, the “formalin response, second phase (5-40 min)” value is recorded as “significantly reduce pain response; also recorded: significantly reduced”.
